From ChEMBL document CHEMBL4043088, “Design of novel HIV-1 protease inhibitors incorporating isophthalamide-derived P2-P3 ligands: Synthesis, biological evaluation and X-ray structural studies of inhibitor-HIV-1 protease complex” (Bioorg Med Chem, 2017)

Legend:
[1] = Inhibition of HIV1 protease using fluorogenic substrate by continuous fluorometric assay; set-up: species or system Human immunodeficiency virus 1
[2] = test system: Human immunodeficiency virus 1; assay: Antiviral activity against HIV1 LAI infected in human MT2 cells assessed as reduction in p24 Gag protein production incubated for 6 days by automated chemiluminescent enzyme immunoassay; format: functional, cell-based; settings: Human immunodeficiency virus 1, LAI, MT2, 144 h

| Structure (SMILES) | Ki [1] [nM] | IC50 [2] [nM] |
| --- | --- | --- |
| COc1ccc(S(=O)(=O)N(CC(C)C)C[C@@H](O)[C@H](Cc2ccccc2)NC(=O)c2cccc(C(=O)N(C)Cc3coc(C)n3)c2)cc1 | 0.64 | 23 |
| COc1ccc(S(=O)(=O)N(CC(C)C)C[C@@H](O)[C@H](Cc2ccccc2)NC(=O)c2ccc(C(=O)N(C)Cc3nc(C)oc3C)cc2)cc1 | 70 | > 1000 |
| COc1ccc(S(=O)(=O)N(CC(C)C)C[C@@H](O)[C@H](Cc2ccccc2)NC(=O)c2cccc(C(=O)N3CCC[C@H]3c3nc(C)cs3)c2)cc1 | 30.8 | > 1000 |
| COCc1coc([C@H]2CCCN2C(=O)c2cccc(C(=O)N[C@@H](Cc3ccccc3)[C@H](O)CN(CC(C)C)S(=O)(=O)c3ccc(OC)cc3)c2)n1 | 0.8 | 327 |
| COc1ccc(S(=O)(=O)N(CC(C)C)C[C@@H](O)[C@H](Cc2ccccc2)NC(=O)c2cccc(C(=O)N(C)Cc3nc(C)co3)c2)cc1 | 0.63 | 581 |
| COc1ccc(S(=O)(=O)N(CC(C)C)C[C@@H](O)[C@H](Cc2ccccc2)NC(=O)c2ccccc2C(=O)N(C)Cc2nc(C)oc2C)cc1 | 629 | > 1000 |
| COc1ccc(S(=O)(=O)N(CC(C)C)C[C@@H](O)[C@H](Cc2ccccc2)NC(=O)c2cccc(C(=O)N3CC[C@@H](c4nc(C)cs4)C3)c2)cc1 | 0.49 | 280 |
| COc1ccc(S(=O)(=O)N(CC(C)C)C[C@@H](O)[C@H](Cc2ccccc2)NC(=O)c2cc(O)cc(C(=O)N(C)Cc3nc(C)oc3C)c2)cc1 | 0.51 | 290 |
| COc1ccc(S(=O)(=O)N(CC(C)C)C[C@@H](O)[C@H](Cc2ccccc2)NC(=O)c2cccc(C(=O)N3CCCC[C@@H]3c3nc(C)cs3)c2)cc1 | 0.53 | 221 |
| COc1ccc(S(=O)(=O)N(CC(C)C)C[C@@H](O)[C@H](Cc2ccccc2)NC(=O)c2cccc(C(=O)N(C)Cc3csc(C)n3)c2)cc1 | 0.107 | 32 |
| COc1ccc(S(=O)(=O)N(CC(C)C)C[C@@H](O)[C@H](Cc2ccccc2)NC(=O)c2cncc(C(=O)N3CCC[C@@H]3c3nc(C)cs3)c2)cc1 | 2.5 |  |
| COc1ccc(S(=O)(=O)N(CC(C)C)C[C@@H](O)[C@H](Cc2ccccc2)NC(=O)c2cccc(C(=O)N3CCC[C@@H]3c3nc(C)cs3)c2)cc1 | 0.025 | 69 |
| Cc1csc([C@H]2CCCN2C(=O)c2cccc(C(=O)N[C@@H](Cc3ccccc3)[C@H](O)CN(CC(C)C)S(=O)(=O)c3ccc(N)cc3)c2)n1 | 1.61 | 189 |
| COc1ccc(S(=O)(=O)N(CC(C)C)C[C@@H](O)[C@H](Cc2ccccc2)NC(=O)c2cccc(C(=O)N3CSC[C@@H]3c3nc(C)cs3)c2)cc1 | 0.76 | 32 |

Further lines, results first:

| Ki [1] [nM] | IC50 [2] [nM] | Structure (SMILES) |
| --- | --- | --- |
| 0.21 | 31 | COc1ccc(S(=O)(=O)N(CC(C)C)C[C@@H](O)[C@H](Cc2ccccc2)NC(=O)c2cccc(C(=O)N(C)Cc3nc(C)oc3C)c2)cc1 |
| 0.41 | 33 | COc1ccc(S(=O)(=O)N(CC(C)C)C[C@@H](O)[C@H](Cc2ccccc2)NC(=O)c2cccc(C(=O)N3CCC[C@@H]3c3nc(C)co3)c2)cc1 |
| 5.08 | 600 | CNc1cc(C(=O)N[C@@H](Cc2ccccc2)[C@H](O)CN(CC(C)C)S(=O)(=O)c2ccc(OC)cc2)cc(C(=O)N(C)Cc2nc(C)oc2C)c1 |
| 23.6 |  | COc1ccc(S(=O)(=O)N(CC(C)C)C[C@@H](O)[C@H](Cc2ccccc2)NC(=O)c2cccc(CN3CCC[C@@H]3c3nc(C)cs3)c2)cc1 |
| 0.79 | 164 | Cc1csc([C@H]2CCCN2C(=O)c2cccc(C(=O)N[C@@H](Cc3ccccc3)[C@H](O)CN(CC(C)C)S(=O)(=O)c3ccc(CO)cc3)c2)n1 |
| 0.4 | 109 | COc1ccc(S(=O)(=O)N(CC(C)C)C[C@@H](O)[C@H](Cc2ccccc2)NC(=O)c2cccc(C(=O)N3CC[C@H](c4nc(C)cs4)C3)c2)cc1 |
